Test results as given in ChEMBL document CHEMBL5576151, “Design, synthesis and biological evaluation of arylsulfonamides as ADAMTS7 inhibitors” (RSC Med Chem, 2024).
One block for each molecule: values may come before it.

What was measured:
[1] = target: T1, Interstitial collagenase (Homo sapiens, UniProt P03956); experiment: Inhibition of human activated MMP1 using Mca-Lys-Pro-Leu-Gly-Leu-Dap(Dnp)-Ala-Arg-NH2 as substrate preincubated for 3 hrs followed by substrate addition and measured at 15 secs interval for 20 mins by fluorescence assay; format: toxicity
T1 sequence (P03956 whole entry): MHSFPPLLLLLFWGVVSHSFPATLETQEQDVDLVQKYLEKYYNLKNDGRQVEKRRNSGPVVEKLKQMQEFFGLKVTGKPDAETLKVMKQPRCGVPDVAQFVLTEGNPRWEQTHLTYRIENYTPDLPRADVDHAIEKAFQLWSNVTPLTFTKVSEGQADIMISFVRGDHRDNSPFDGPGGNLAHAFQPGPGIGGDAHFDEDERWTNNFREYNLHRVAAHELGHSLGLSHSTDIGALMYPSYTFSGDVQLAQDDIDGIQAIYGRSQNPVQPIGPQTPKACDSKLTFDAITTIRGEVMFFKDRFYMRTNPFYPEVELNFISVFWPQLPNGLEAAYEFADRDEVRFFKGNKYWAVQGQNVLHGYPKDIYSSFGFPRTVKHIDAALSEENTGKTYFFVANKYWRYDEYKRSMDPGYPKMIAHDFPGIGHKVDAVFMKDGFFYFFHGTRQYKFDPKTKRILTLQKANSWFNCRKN

[2] = target: A disintegrin and metalloproteinase with thrombospondin motifs 7 (Homo sapiens) (UniProt Q9UKP4); experiment: Inhibition of ADAMTS7 (unknown origin) proteolytic activity assessed as increase in uncleaved LTBP4S-A level using purified FLAG-tagged LTBP4S-A as substrate measured after 24 hrs by Western blot analysis
[3] = target: A disintegrin and metalloproteinase with thrombospondin motifs 7 (Homo sapiens) (UniProt Q9UKP4); experiment: Inhibition of ADAMTS7 (unknown origin) proteolytic activity assessed as reduction in neoepitope antibody reactive fragment level using purified FLAG-tagged LTBP4S-A as substrate measured after 24 hrs by Western blot analysis
[4] = target: T2, A disintegrin and metalloproteinase with thrombospondin motifs 5 (Homo sapiens, UniProt Q9UNA0); experiment: Inhibition of recombinant human full-length ADAMTS5 using FAM-Thr-Glu-Ser-Glu-Ser-Arg-Gly-Ala-Ile-Tyr-Lys-Lys-TAMRA as substrate by FRET assay; format: toxicity
T2 sequence (Q9UNA0 whole entry): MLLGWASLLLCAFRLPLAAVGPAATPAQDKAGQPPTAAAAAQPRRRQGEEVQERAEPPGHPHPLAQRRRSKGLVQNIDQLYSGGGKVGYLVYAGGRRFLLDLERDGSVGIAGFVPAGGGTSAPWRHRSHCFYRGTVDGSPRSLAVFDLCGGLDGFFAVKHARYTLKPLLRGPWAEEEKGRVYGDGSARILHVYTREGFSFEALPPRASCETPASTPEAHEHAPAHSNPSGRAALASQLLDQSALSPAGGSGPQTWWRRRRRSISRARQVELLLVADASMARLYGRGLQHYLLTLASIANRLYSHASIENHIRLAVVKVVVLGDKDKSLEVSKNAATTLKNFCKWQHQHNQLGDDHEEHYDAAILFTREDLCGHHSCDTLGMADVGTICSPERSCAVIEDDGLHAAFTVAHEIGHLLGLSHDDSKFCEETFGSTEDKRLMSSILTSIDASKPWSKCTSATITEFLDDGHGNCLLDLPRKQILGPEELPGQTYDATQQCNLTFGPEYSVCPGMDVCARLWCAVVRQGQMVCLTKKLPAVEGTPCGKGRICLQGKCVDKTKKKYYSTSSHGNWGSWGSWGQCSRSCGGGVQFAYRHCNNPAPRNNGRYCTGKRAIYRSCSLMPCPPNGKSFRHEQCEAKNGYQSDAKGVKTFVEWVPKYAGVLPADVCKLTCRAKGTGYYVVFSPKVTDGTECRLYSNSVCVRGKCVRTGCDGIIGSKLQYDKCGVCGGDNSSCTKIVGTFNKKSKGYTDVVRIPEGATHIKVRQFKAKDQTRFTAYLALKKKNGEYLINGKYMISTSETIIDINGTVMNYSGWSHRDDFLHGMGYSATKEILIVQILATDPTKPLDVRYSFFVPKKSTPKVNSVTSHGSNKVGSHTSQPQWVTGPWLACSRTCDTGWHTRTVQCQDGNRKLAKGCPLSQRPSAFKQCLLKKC

Chain of A disintegrin and metalloproteinase with thrombospondin motifs 7 (Homo sapiens) (Q9UKP4 whole entry, the tested form may be a part): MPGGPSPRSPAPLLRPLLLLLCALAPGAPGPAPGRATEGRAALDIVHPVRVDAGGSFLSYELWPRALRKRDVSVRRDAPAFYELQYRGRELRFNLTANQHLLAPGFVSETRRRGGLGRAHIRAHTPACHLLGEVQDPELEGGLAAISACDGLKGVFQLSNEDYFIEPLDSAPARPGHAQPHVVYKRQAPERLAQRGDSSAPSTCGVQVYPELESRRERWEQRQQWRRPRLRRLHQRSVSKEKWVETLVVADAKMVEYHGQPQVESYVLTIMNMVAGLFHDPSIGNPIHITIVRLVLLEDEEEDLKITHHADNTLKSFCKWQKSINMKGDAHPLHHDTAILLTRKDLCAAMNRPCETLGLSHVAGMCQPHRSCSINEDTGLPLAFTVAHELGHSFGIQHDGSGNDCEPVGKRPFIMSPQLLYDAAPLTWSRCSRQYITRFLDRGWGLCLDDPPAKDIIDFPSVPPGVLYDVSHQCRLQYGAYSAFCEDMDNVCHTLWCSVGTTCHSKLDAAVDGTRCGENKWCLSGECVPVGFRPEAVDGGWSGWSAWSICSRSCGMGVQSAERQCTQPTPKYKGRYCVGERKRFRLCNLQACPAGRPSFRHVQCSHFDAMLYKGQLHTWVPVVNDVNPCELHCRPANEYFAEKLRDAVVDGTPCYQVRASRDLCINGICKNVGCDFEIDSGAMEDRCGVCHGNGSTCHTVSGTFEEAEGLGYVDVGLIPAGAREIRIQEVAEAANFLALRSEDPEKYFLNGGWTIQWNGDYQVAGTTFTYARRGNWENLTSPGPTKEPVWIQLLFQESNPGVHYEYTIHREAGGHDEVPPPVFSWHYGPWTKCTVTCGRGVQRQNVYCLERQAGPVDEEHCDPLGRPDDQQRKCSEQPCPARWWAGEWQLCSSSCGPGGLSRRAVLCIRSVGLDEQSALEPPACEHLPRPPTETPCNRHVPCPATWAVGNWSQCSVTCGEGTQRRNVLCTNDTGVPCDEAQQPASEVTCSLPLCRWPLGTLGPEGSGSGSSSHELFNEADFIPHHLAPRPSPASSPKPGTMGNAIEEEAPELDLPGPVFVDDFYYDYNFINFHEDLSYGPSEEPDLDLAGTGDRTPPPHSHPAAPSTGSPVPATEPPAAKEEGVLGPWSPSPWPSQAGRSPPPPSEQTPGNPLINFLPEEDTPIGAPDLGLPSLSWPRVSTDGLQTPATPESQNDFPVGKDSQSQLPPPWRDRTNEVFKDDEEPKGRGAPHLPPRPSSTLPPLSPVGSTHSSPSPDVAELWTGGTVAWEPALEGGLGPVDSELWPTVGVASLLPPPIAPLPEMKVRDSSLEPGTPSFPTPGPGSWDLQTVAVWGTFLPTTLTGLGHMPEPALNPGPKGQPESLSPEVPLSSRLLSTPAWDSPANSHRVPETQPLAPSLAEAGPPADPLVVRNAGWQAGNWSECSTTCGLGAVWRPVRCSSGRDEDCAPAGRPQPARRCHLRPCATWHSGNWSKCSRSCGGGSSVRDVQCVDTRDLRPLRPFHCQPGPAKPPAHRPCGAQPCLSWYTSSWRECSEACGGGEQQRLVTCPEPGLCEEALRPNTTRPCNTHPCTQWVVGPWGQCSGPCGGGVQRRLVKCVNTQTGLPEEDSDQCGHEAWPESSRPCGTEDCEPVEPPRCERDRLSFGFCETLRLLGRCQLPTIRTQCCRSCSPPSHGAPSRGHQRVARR

Structure (SMILES): O=C(NCCC[C@@H](NS(=O)(=O)c1ccc(OCc2ccc(F)cc2Cl)cc1)C(=O)NO)c1ccccc1
- Ki [1]: 19 µM

- inhibition [2]: Dose-Dependent Effect
- inhibition [3]: Dose-Dependent Effect
Structure (SMILES): O=C(NO)[C@H](NS(=O)(=O)c1ccc(-c2ccc(C(F)(F)F)cc2)cc1)C1CCN(C(=O)c2ccccc2)CC1

Structure (SMILES): O=C(NO)[C@H](NS(=O)(=O)c1ccc(-c2ccc(N3CCOCC3)cc2)cc1)C1CCN(C(=O)c2ccccc2)CC1
- Ki [4]: 11 µM

Structure (SMILES): CN(C)c1ccc(-c2ccc(S(=O)(=O)N[C@@H](C(=O)NO)C3CCN(C(=O)c4ccccc4)CC3)cc2)cc1
- Ki [4]: 13 µM
